# Active and inactive are the calls of the source.
# Legend:
# [1] = inhibitors of intracellular T. cruzi replication, confirmation, NIH3T3 host cells, beta-gal luminescence (AID 2044); assay type: functional, cell-based;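 also: intracellular parasites grown in NIH/3T3 mouse fibroblasts as host cells; luminescent beta-galactosidase reporter signal from transgenic T. cruzi replicating inside host cells; inhibitors lower the luminescence signal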
# [2] = cytotoxicity toward NIH3T3 fibroblasts, dose response, counter-screen, cell-based, ATP luminescence, mouse fibroblasts (AID 2010); assay type: functional;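 also: cells exposed to compound for about 90 hours before reading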
# [3] = molecular target: T1, Corticotropin-releasing factor receptor 2/Corticotropin-releasing factor-binding protein (Homo sapiens, UniProt P24387+Q13324); test: activators of CRF receptor 2 with binding protein – uHTS hits, confirmation (AID 602473); assay type: functional; details: read-out: EC50_Mean
# T1 sequence (Q13324 whole entry): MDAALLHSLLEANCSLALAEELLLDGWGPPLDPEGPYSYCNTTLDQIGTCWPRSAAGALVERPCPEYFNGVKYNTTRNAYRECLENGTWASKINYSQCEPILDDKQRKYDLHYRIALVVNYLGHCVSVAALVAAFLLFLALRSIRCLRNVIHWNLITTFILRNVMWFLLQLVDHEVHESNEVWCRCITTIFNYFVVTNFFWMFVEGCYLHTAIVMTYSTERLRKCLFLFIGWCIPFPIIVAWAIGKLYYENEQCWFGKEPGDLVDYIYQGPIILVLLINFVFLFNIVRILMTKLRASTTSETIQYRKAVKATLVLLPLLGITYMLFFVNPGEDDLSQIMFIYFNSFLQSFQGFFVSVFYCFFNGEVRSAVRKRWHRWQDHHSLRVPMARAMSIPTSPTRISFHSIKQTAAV
# T1 sequence (P24387 whole entry): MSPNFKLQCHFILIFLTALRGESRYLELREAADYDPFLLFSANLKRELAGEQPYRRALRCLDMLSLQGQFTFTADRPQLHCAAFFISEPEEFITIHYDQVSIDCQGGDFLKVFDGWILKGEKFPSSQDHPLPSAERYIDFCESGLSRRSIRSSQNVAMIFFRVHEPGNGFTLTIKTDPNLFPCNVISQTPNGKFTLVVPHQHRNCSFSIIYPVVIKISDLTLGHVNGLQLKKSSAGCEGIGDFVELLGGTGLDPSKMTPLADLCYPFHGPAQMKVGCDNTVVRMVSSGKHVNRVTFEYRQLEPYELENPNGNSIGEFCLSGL
# [4] = tested on: Streptococcus sp. 'group A'; test: growth inhibition of control SK(-) GAS strain, dose response, counter-screen for streptokinase expression inhibitor project, luminescence, kanamycin, BacTiterGlo, confirmation (AID 1900); assay type: functional, organism-based
# Streptokinase A = molecular target: T2, Streptokinase A (Streptococcus pyogenes serotype M1, UniProt P10520); test: S. pyogenes streptokinase expression inhibitors, potency, dose response, plasminogen activation absorbance, OD405 (AID 1914); assay type: functional, Streptococcus pyogenes M1 GAS;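 also: secreted streptokinase activity via plasminogen activation per viability signal from cell pellet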
# T2 sequence (P10520 whole entry): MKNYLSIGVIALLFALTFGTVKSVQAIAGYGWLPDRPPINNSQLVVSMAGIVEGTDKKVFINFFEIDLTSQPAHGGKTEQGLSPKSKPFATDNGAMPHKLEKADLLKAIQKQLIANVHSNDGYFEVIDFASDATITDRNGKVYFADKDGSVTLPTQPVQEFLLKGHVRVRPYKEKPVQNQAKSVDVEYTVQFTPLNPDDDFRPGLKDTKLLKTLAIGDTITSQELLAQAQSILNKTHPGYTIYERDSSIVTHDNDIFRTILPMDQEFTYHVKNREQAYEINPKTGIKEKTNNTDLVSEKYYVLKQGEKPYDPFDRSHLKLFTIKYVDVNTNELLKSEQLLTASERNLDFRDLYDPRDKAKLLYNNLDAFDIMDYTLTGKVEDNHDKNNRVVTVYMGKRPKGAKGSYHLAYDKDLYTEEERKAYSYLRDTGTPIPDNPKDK
# Streptococcus = test: Group A Streptococcus viability loss, dose response, counter-screen for streptokinase expression inhibitor project, luminescence, BacTiterGlo (AID 1915); assay type: functional, organism-based;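 also: potency for reduction of bacterial viability or growth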
# Cytochrome P450 3A4 = Cytochrome P450 3A4 (Homo sapiens, UniProt P08684);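 also: CYP3A4 tested as one member of a cytochrome P450 panel screen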
# Cytochrome P450 2C19 = Cytochrome P450 2C19 (Homo sapiens, UniProt P33261); test: Cytochrome panel assay with activity outcomes. Panel member name: p450-cyp2c19 Compounds with AC50 equal or less than 10 uM are considered active; assay type: functional
# Cytochrome P450 2C9 = Cytochrome P450 2C9 (Homo sapiens, UniProt P11712)
# Chain of Cytochrome P450 2C9 (P11712 whole entry): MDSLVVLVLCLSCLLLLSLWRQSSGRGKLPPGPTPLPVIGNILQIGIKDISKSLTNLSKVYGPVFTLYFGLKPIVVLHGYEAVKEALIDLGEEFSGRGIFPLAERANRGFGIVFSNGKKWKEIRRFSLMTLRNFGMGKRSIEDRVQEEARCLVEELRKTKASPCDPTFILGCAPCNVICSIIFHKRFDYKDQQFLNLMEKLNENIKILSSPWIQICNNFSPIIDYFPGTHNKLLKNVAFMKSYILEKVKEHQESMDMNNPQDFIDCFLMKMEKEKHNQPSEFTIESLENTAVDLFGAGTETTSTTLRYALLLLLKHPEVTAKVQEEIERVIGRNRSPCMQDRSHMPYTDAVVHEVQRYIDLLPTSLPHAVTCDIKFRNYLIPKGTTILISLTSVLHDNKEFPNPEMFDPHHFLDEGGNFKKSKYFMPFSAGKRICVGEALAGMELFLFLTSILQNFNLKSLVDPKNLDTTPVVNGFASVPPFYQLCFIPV
# Chain of Cytochrome P450 2C19 (P33261 whole entry): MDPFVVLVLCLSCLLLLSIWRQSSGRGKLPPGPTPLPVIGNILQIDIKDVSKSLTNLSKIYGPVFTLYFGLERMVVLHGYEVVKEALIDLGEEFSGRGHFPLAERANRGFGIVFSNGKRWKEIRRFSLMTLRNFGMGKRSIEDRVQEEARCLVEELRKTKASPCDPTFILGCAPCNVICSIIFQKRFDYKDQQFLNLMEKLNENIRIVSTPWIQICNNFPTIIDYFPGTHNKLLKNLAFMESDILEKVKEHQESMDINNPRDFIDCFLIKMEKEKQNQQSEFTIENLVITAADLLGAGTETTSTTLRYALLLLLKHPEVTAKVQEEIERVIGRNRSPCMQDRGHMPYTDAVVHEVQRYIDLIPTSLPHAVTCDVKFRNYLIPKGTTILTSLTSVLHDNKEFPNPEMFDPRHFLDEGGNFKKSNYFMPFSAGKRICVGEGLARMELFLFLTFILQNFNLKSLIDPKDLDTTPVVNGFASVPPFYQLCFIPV
# Chain of Cytochrome P450 3A4 (P08684 whole entry): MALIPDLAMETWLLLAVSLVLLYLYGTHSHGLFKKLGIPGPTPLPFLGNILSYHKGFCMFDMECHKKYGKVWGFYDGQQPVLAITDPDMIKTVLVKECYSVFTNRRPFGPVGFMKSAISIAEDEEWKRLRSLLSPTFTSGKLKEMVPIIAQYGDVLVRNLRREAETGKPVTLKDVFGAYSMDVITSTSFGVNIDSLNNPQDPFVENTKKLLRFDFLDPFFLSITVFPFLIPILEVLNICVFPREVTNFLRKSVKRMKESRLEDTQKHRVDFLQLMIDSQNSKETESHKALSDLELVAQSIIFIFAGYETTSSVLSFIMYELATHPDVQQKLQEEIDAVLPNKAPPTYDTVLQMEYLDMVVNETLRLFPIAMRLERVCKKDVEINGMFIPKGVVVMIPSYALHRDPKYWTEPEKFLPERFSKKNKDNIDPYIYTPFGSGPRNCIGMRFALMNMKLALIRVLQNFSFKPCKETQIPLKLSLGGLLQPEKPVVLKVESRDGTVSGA
smiles,measurement,setting,value
CN1CCN(c2oc(COc3ccc(-c4ccccc4)cc3)nc2C#N)CC1,EC50,[1],0.226 µM (active)
same,EC50,[2],> 60 µM (not active)
CCc1ccccc1N1CN(Cc2ccco2)CNC1=S,EC50,[3],> 53 µM (inactive)
Cc1cc(Oc2ccc(Cl)cc2)nc(-c2ccccc2O)n1,EC50,[4],> 150 µM (not active)
same,EC50,Streptokinase A,14.6 µM (active)
same,EC50,Streptococcus,> 150 µM (not active)
C=CCNC(=O)c1cccn1-c1ccsc1C(=O)OC,AC50,Cytochrome P450 3A4,14.1 µM (inconclusive)
CCOc1ccc(NC(=O)CCSc2nc3c(c(CC)c2C#N)C(=O)CC(C)(C)C3)cc1,EC50,[1],2.94 µM (active)
same,EC50,[2],> 60 µM (inconclusive)
CCOc1ccc(Br)cc1C1C(C(=O)OC)=C(N)Oc2cc(N(C)C)ccc21 (configuration not stated),EC50,[1],0.826 µM (active)
same,EC50,[2],8.1 µM (active)
CCCCCCC(=O)NN/C=C1/C(=O)NC(=S)N(CCCC)C1=O,EC50,[4],5.51 µM (active)
same,EC50,Streptokinase A,> 150 µM (not active)
same,EC50,Streptococcus,49.3 µM (active)
Cc1cc2c(NC(=O)Nc3ccc(C(F)(F)F)cc3)cccc2nn1,EC50,[1],4.55 µM (active)
same,EC50,[2],> 60 µM (not active)
COc1ccc(Cc2noc(CN3CCN(Cc4cccc(Cl)c4)CC3)n2)cc1OC,EC50,[1],0.788 µM (active)
same,EC50,[2],> 30 µM (not active)
O=c1c(-c2ccc(F)cc2)nc2cnc(N3CCOCC3)nc2n1Cc1cccs1,AC50,Cytochrome P450 3A4,15.8 µM (inconclusive)
CN=C(S)Nc1ccc2nc(C)c(C)nc2c1,AC50,Cytochrome P450 2C19; read-out: AC50,39.8 µM (inconclusive)
same,AC50,Cytochrome P450 3A4,17.8 µM (inconclusive)
CN(CCOc1ccccc1)CC(O)COCc1ccccc1F (configuration not stated),EC50,[1],0.526 µM (active)
same,EC50,[2],> 60 µM (not active)
O=C(CCCCCn1c(=S)[nH]c2cc3c(cc2c1=O)OCO3)N1CCN(C2CCCCC2)CC1,AC50,Cytochrome P450 2C19; read-out: AC50,7.08 µM (inconclusive)
Cc1nc2cnc(N3CCOCC3)nc2n(C2CC2)c1=O,AC50,Cytochrome P450 3A4,15.8 µM (inconclusive)
O=C(COc1ccccc1)N1CCN(c2nnc(-c3ccccc3)c3ccccc23)CC1,EC50,[1],1.77 µM (active)
same,EC50,[2],> 60 µM (not active)
COc1ccc(C(=O)Nc2scc(-c3ccc(Cl)cc3Cl)c2C(N)=O)cc1,AC50,Cytochrome P450 3A4,28.2 µM (inconclusive)
COc1ccc2c(CC#N)c[nH]c2c1,EC50,[3],> 53 µM (inactive)
Cc1ccc(NS(=O)(=O)c2cc([N+](=O)[O-])ccc2NN=C(S)Nc2cccc(Cl)c2)c(C)c1,EC50,[4],0.833 µM (active)
same,EC50,Streptococcus,2.37 µM (active)
Cc1noc(C)c1-c1nccc(N(C)Cc2ccco2)n1,AC50,Cytochrome P450 3A4,25.1 µM (inconclusive)
Cc1cn(CC[C@H](N)C(=O)O)c(=O)[nH]c1=O,AC50,Cytochrome P450 2C19,inconclusive
Cc1nc(Nc2ccc(S(=O)(=O)N3CCCCC3C)cc2)c2nnn(Cc3ccccc3)c2n1 (configuration not stated),EC50,[1],1.92 µM (active)
same,EC50,[2],> 60 µM (not active)
CCS(=O)(=O)N1CCN(c2ccc(C(=O)NC3C4CC5CC(C4)CC3C5)cc2[N+](=O)[O-])CC1 (configuration not stated),EC50,[1],2.32 µM (active)
same,EC50,[2],> 30 µM (not active)
CC(C)(C)[Si](C)(C)c1c2c(nc3ccc(OCc4ccccc4)cc13)-c1cccc(=O)n1C2,AC50,Cytochrome P450 2C9,20 µM (inconclusive)
Cn1c(S)nnc1CNS(=O)(=O)c1ccc(F)cc1,AC50,Cytochrome P450 2C19; read-out: AC50,39.8 µM (inconclusive)
CN(C(=O)Cc1c(C(=O)O)n(C)c2ccccc12)c1ccc(F)cc1,EC50,[4],> 150 µM (not active)
same,EC50,Streptokinase A,> 150 µM (not active)
same,EC50,Streptococcus,> 150 µM (not active)
Cc1ccc(NC(=S)/N=C(\N)Nc2nc(C)c3cc(C)c(C)cc3n2)cc1C,EC50,[1],1.98 µM (active)
COc1ccc(S(=O)(=O)N2Cc3ccccc3CC2C(=O)Nc2nccs2)cc1 (configuration not stated),AC50,Cytochrome P450 3A4,3.55 µM (active)
CCCC(=O)Nc1nc(-c2ccc3c(c2)CCN3S(C)(=O)=O)cs1,AC50,Cytochrome P450 3A4,7.94 µM (inconclusive)
O=S(=O)(NC(=NCc1ccccc1)c1ccccc1)c1ccc(Br)cc1,EC50,[4],> 150 µM (not active)
same,EC50,Streptokinase A,33.4 µM (active)
same,EC50,Streptococcus,> 150 µM (not active)
Cc1ccc(S(=O)(=O)NC2=NC(=O)/C(=C/c3cccnc3)S2)cc1,AC50,Cytochrome P450 3A4,0.891 µM (inconclusive)
CCOC(=O)NC1(C(F)(F)F)C(=O)N(Cc2ccccc2)C2=C1C(=O)CC(C)(C)C2 (configuration not stated),AC50,Cytochrome P450 2C9,28.2 µM (inconclusive)
CC1(C)CC2CC(C)(CN2C(=O)c2ccc([N+](=O)[O-])cc2[N+](=O)[O-])C1 (configuration not stated),EC50,[1],0.955 µM (active)
same,EC50,[2],> 60 µM (not active)
N#Cc1cccc(-c2nc3cnc(N4CCNCC4)nc3n(C3CC3)c2=O)c1,AC50,Cytochrome P450 3A4,20 µM (inconclusive)
COc1ccc(NC(=O)C(OC(=O)c2cnc(C)cn2)c2ccccc2)cc1Cl (configuration not stated),EC50,[4],4.66 µM (active)
same,EC50,Streptokinase A,> 150 µM (not active)
same,EC50,Streptococcus,> 150 µM (not active)
c1cncc(-c2nc(NCCCN3CCOCC3)c3c4c(sc3n2)CCC4)c1,EC50,[1],2.58 µM (active)
same,EC50,[2],> 60 µM (not active)
COc1cccc(-c2cc(C(=O)NCC3CCCO3)c3cc(Br)cc(C)c3n2)c1 (configuration not stated),EC50,[4],> 150 µM (not active)
same,EC50,Streptokinase A,> 150 µM (not active)
same,EC50,Streptococcus,> 150 µM (not active)
Fc1ccc(COc2ccccc2CNCc2ccncc2)cc1,EC50,[1],2.14 µM (active)
Fc1ccc(NC(=S)N2CCn3cccc3C2c2cccnc2)cc1 (configuration not stated),EC50,[1],0.229 µM (active)
same,EC50,[2],> 60 µM (not active)
COC(=O)NC/C=C\c1nc(CC/C=C\C(=O)O[C@H]2C[C@H]3CC(=O)O[C@@H](/C=C\CC(C)C)C[C@@H]4CC[C@H](C)[C@H](C[C@@H](OC)C[C@H](C2)O3)O4)co1,AC50,Cytochrome P450 2C19,inconclusive
COc1ccc(-n2c(=O)cnc3cnc(Oc4ccccc4)nc32)cc1,AC50,Cytochrome P450 2C19; read-out: AC50,39.8 µM (inconclusive)
CCc1ccc(S(=O)(=O)NCC2(N3CCOCC3)CCCCC2)cc1,EC50,[3],6.83 µM (active)
CCC1(CC)C(=O)N(Cc2ccccc2)C(=O)N(Cc2ccccc2)C1=O,EC50,[1],1.71 µM (active)
same,EC50,[2],> 30 µM (not active)
Cc1noc(C)c1C(=O)N1CCC2(CCCN(Cc3nccs3)C2)CC1,AC50,Cytochrome P450 3A4,12.6 µM (inconclusive)
O=C(Nc1nnc(C2CC2)s1)c1ccncc1,AC50,Cytochrome P450 3A4,14.1 µM (inconclusive)
CC(=O)N1CCC[C@@]2(CCN(c3ccncc3)C2)C1,AC50,Cytochrome P450 3A4,25.1 µM (inconclusive)
COc1ccc(NC(=O)c2cccc(Cn3cc(Br)c([N+](=O)[O-])n3)c2)c(C)c1,EC50,[1],0.32 µM (active)
same,EC50,[2],9.14 µM (active)
CCCCN=C(S)N1CCn2cccc2C1c1cccnc1 (configuration not stated),EC50,[1],1.77 µM (active)
same,EC50,[2],> 60 µM (inconclusive)
CCOC(=O)C1=C(N)c2ccccc2CC1C1CCCC1 (configuration not stated),EC50,[4],7.81 µM (active)
same,EC50,Streptokinase A,19.3 µM (active)
same,EC50,Streptococcus,11.9 µM (active)
C=CCC[C@H](Cc1ccc(F)cc1)C(=O)OC[C@H](Cc1c[nH]c2ccccc12)NC(=O)[C@@H](CC=C)CC(=O)NCCO,EC50,[3],12.8 µM (active)
COc1ccccc1NC(=O)N1CCCC1C(=O)NCc1ccc2c(c1)OCO2 (configuration not stated),AC50,Cytochrome P450 2C19; read-out: AC50,28.2 µM (inconclusive)
COc1ccc2c(c1)CCCC21NC(=O)N(CC(N)=O)C1=O (configuration not stated),AC50,Cytochrome P450 2C19; read-out: AC50,39.8 µM (inconclusive)
CCC1CCCCN1C(=O)COC(=O)COc1ccc(Br)cc1 (configuration not stated),EC50,[3],> 53 µM (inactive)
O=C(C/C=N/OCc1ccc(F)cc1Cl)c1cnc(-c2ccccc2)s1,AC50,Cytochrome P450 3A4,14.1 µM (inconclusive)
OCCNc1ncnc2nc[nH]c12,AC50,Cytochrome P450 3A4,0.251 µM (inconclusive)
COc1cc(N)c(Cl)cc1C(=O)CCC1CCN(CCNS(C)(=O)=O)CC1,AC50,Cytochrome P450 3A4,15.8 µM (inconclusive)
CCC1(C)CC(=O)NC(=O)C1 [BEMEGRIDE],AC50,Cytochrome P450 2C19,inconclusive

# — ChEMBL document CHEMBL1201862, “PubChem BioAssay data set” (2004)
